Here are results for 37 molecules from ChEMBL document CHEMBL5325418, “Studies on diketopiperazine and dipeptide analogs as opioid receptor ligands” (Eur J Med Chem, 2023).

Square brackets hold non-standard residues; d marks the D form. Peptide text beside a SMILES is read from it. * marks the point of attachment. ξ: configuration not given here. ξPhe(3-OMe) = COc1cccc(CC(N)C(=O)O)c1; ξPhe(2-I) = NC(Cc1ccccc1I)C(=O)O; Nphe = O=C(O)CNCc1ccccc1; Boc = CC(C)(C)OC(=O)*

Series [1] concerns the target Kappa-type opioid receptor (Homo sapiens, UniProt P41145). Nature of the series: Displacement of [3H]U69593 from human KOR expressed in HEK cell membranes assessed as inhibition constant incubated for 60 mins by microbeta 2 scintillation counting method. Also noted: species or system Cell membrane.
Series [2] addresses Delta-type opioid receptor (Homo sapiens, UniProt P41143). In words: Displacement of [3H]DADLE from human DOR expressed in CHO cell membranes assessed as inhibition constant incubated for 60 mins by microbeta 2 scintillation counting method. Also noted: species or system Cell membrane. (In a radioligand displacement assay an active substance lowers the binding of a labelled ligand.)

Another series has as its target Mu-type opioid receptor (Homo sapiens, UniProt P35372). Nature of the series: Displacement of [3H]DAMGO from human MOR expressed in CHO cell membranes assessed as inhibition constant incubated for 60 mins by microbeta 2 scintillation counting method. Also noted: species or system Cell membrane.
For series [3], the species on record is Homo sapiens. In words: Selectivity ratio of Ki for displacement of [3H]DAMGO from human MOR expressed in CHO cell membranes to Ki for displacement of [3H]U69593 from human KOR expressed in HEK cell membranes.
The species entered for series [4] is Homo sapiens. In words: Selectivity ratio of Ki for displacement of [3H]DADLE from human DOR expressed in CHO cell membranes to Ki for displacement of [3H]U69593 from human KOR expressed in HEK cell membranes.
Series [5] is described as follows: Metabolic stability in Sprague-Dawley rat plasma assessed as half life at 100 uM measured upto 24 hrs by LC-MS/MS analysis. It is filed as ADME, cell-free.
Series [6] in a line: Metabolic stability in CD-1 mouse plasma assessed as half life at 100 uM measured upto 24 hrs by LC-MS/MS analysis. It is filed as ADME, cell-free.
Series [7] can be described thus: Metabolic stability in human plasma assessed as half life at 100 uM measured upto 24 hrs by LC-MS/MS analysis. The series is classed as ADME, cell-free. Conditions: 24 h, 100 µM.
Series [8] can be described thus: Metabolic stability in Beagle dog plasma assessed as half life at 100 uM measured upto 24 hrs by LC-MS/MS analysis. The series is classed as ADME, cell-free, Canis lupus familiaris. Conditions: 24 h, 100 µM.
The nature of series [9]: Plasma protein binding in human assessed as bound fraction at 1 uM by LC-MS/MS analysis. It is filed as ADME, cell-free.
Series [10] is described as follows: Metabolic stability in Sprague-Dawley rat liver microsomes assessed as intrinsic clearance at 100 uM measured upto 24 hrs in presence of NADPH by LC-MS/MS analysis. It is filed as ADME, Microsome.
Another series concerns BEND3. In words: Apparent permeability coefficient of the compound across blood brain barrier in mouse BEND3 cells at 10 ug/ml measured upto 120 mins by LC-MS/MS analysis. It is filed as functional, cell-based. Conditions: dose 10.0 µg/ml.
A short description of series [11]: Plasma protein binding in dog assessed as bound fraction at 1 uM by LC-MS/MS analysis. The series is classed as ADME, cell-free, Canis lupus familiaris.

Chain of Mu-type opioid receptor (P35372 whole entry): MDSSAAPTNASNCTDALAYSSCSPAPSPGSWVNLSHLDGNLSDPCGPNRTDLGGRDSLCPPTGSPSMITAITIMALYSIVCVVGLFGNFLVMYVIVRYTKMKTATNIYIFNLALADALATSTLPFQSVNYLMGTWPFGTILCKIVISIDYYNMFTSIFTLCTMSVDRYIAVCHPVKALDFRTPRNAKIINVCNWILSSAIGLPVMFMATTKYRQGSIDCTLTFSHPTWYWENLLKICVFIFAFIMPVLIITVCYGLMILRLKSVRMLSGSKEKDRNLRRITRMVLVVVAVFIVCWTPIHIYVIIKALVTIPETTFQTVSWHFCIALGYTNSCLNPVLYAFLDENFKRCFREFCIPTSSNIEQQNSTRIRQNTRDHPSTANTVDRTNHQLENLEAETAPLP
Chain of Kappa-type opioid receptor (P41145 whole entry): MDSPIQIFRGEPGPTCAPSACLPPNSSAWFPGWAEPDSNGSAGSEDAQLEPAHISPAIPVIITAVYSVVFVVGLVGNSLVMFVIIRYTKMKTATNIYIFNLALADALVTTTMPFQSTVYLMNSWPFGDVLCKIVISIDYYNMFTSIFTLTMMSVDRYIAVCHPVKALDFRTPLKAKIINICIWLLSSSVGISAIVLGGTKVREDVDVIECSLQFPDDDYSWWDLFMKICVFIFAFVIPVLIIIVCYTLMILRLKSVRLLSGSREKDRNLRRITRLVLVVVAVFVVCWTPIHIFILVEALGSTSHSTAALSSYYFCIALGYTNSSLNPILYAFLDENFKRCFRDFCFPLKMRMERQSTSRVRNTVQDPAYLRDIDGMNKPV
Chain of Delta-type opioid receptor (P41143 whole entry): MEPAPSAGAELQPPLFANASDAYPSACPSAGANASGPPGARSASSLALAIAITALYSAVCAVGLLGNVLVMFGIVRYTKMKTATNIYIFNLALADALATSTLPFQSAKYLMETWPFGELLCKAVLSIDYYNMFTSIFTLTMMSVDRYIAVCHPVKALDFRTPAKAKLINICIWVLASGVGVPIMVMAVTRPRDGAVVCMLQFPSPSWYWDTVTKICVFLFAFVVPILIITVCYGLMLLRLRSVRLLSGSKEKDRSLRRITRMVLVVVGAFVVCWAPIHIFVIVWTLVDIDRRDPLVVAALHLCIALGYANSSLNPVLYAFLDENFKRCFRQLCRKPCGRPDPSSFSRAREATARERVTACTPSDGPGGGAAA

Broadly, the Ki is the equilibrium dissociation constant of an inhibitor or competing ligand from its target. On to `COc1cccc(CC2NC(=O)CNC2=O)c1I` (configuration not stated), for which the Ki (in series [1]; in series [2]; on Mu-type opioid receptor) was greater than 10 µM each time.
Regarding `COC(=O)C(Cc1cccc(OC)c1)NC(=O)CNCc1ccccc1` (configuration not stated) (H-[Nphe]-[ξPhe(3-OMe)]-OMe), the Ki (in series [1]; in series [2]; on Mu-type opioid receptor) was greater than 10 µM throughout.
For `COc1cccc(CC2NC(=O)CN(CCc3ccccc3)C2=O)c1I` (configuration not stated), the Ki was 5.11 µM in series [1], greater than 10 µM in [2] and greater than 10 µM at Mu-type opioid receptor. The Ratio Ki in the series filed under Homo sapiens [3] and in the series filed under Homo sapiens [4] was greater than 1.9 throughout.
Regarding `COC(=O)C(Cc1cccc(OC)c1I)NC(=O)CN` (configuration not stated), the Ki (in series [1]; in series [2]; at Mu-type opioid receptor) was greater than 10 µM each time.
With `COC(=O)C(Cc1ccccc1I)NC(=O)CN(Cc1ccccc1)C(=O)OC(C)(C)C` (configuration not stated) (Boc-[Nphe]-[ξPhe(2-I)]-OMe), the Ki in series [1] is 4.18 µM; in [2], greater than 10 µM; at Mu-type opioid receptor, 4.38 µM.
Taken in the same sequence, the figures for `COc1cccc(CC2NC(=O)[C@H](Cc3ccccc3)NC2=O)c1I` (some centres not stated) were greater than 10 µM, greater than 10 µM and greater than 10 µM.
Turning to `COC(=O)C(Cc1cccc(OC)c1I)NC(=O)CN(Cc1ccccc1)C(=O)OC(C)(C)C` (configuration not stated), the Ki (in [1]; in series [2]; at Mu-type opioid receptor) was greater than 10 µM each time.
As usually defined, the half-life is the time in which the quantity being followed falls by half. In the case of `COC(=O)C(Cc1cccc(C)c1I)NC(=O)CNCc1ccccc1` (configuration not stated), the results for the Ki (in series [1]; in series [2]; at Mu-type opioid receptor) were 0.123 µM, greater than 10 µM and greater than 10 µM, respectively. Besides, the Ratio Ki in the series listed under Homo sapiens [3] and in the series listed under Homo sapiens [4] was greater than 81 in each case. The half-life at 100 µM in series [5] and in series [6] was less than 1 min in each case. Besides, the t1/2 in [7] was 2.4577 h; in series [8] it was 3.8202 h. Moreover, the PPB in series [9] stood at 97.86%. The Intrinsic clearance in series [10] was found to be 1889 µL/min/mg. Also, the Pe with BEND3 is 21.5 10^-3cm/min.
On to `COC(=O)C(Cc1cccc(OC)c1I)NC(=O)CN(C)Cc1ccccc1` (configuration not stated), for which the Ki in series [1] was 0.256 µM; in series [2], greater than 10 µM; at Mu-type opioid receptor, greater than 10 µM. In addition, the Ratio Ki in the series filed under Homo sapiens [3] and in the series listed under Homo sapiens [4] was greater than 40 throughout.
With `Cn1c(=O)c2c(ncn2C)n(C)c1=O`, the Pe with BEND3 was 28.1 10^-3cm/min.
Take `COC(=O)C(Cc1cccc(OC)c1)NC(=O)CN(Cc1ccccc1)C(=O)OC(C)(C)C` (configuration not stated) (Boc-[Nphe]-[ξPhe(3-OMe)]-OMe): the Ki (in series [1]; in series [2]; at Mu-type opioid receptor) was greater than 10 µM in each case.
As to `CNCC(=O)NC(Cc1cccc(OC)c1I)C(=O)OC` (configuration not stated), the Ki (in [1]; in series [2]; at Mu-type opioid receptor) was greater than 10 µM each time.
As for `COc1cccc(CC(NC(=O)CNCc2ccccc2)C(=O)O)c1I` (configuration not stated), the inhibitory constant (Ki) (in [1]; in [2]; on Mu-type opioid receptor) was greater than 10 µM in each case.
As for `O=C1OC2(c3ccc(O)cc3Oc3cc(O)ccc32)c2ccccc21`, in the series with BEND3, the Pe is 0.95 10^-3cm/min.
As to `COC(=O)C(Cc1ccccc1I)NC(=O)CNCc1ccccc1` (configuration not stated) (H-[Nphe]-[ξPhe(2-I)]-OMe), the Ki (in series [1]; in [2]; at Mu-type opioid receptor) was greater than 10 µM throughout.
Turning to `COc1cccc(CC2NC(=O)CN(Cc3ccccc3)C2=O)c1` (configuration not stated), the Ki (in series [1]; in [2]; at Mu-type opioid receptor) was greater than 10 µM throughout.
Turning to `COC(=O)C(Cc1cccc(OC)c1I)NC(=O)CNCCc1ccccc1` (configuration not stated), the Ki was 0.802 µM in series [1], greater than 10 µM in series [2] and greater than 10 µM at Mu-type opioid receptor. Besides, the Ratio Ki in the series filed under Homo sapiens [3] and in the series listed under Homo sapiens [4] was greater than 12 in each case.
In the case of `COc1cccc(CC2NC(=O)[C@@H]3CCCN3C2=O)c1I` (some centres not stated), the Ki (in [1]; in series [2]; on Mu-type opioid receptor) was greater than 10 µM in each case.
For `COC(=O)C(Cc1cccc(OC)c1I)NC(=O)CNC(C)c1ccccc1` (configuration not stated), the Ki in [1] was 0.765 µM; in series [2], greater than 10 µM; on Mu-type opioid receptor, greater than 10 µM. In addition, the Ratio Ki in the series listed under Homo sapiens [3] and in the series listed under Homo sapiens [4] was greater than 13 each time.
Take `COc1cccc(CC2NC(=O)CCN(Cc3ccccc3)C2=O)c1I` (configuration not stated): the Ki (in [1]; in series [2]; at Mu-type opioid receptor) was greater than 10 µM each time.
As to `COC(=O)C(Cc1cccc(OC)c1C)NC(=O)CNCc1ccccc1` (configuration not stated), the Ki in series [1] is 0.19 µM; in [2], greater than 10 µM; at Mu-type opioid receptor, greater than 10 µM. Further, the Ratio Ki in the series listed under Homo sapiens [3] and in the series filed under Homo sapiens [4] was greater than 53 throughout. Further, the half-life at 100 µM in [5] and in series [6] was less than 1 min in each case. Also, the t1/2 in series [7] was 2.5282 h; in [8], 4.321 h. Moreover, the PPB in series [9] came to 89.36%; in series [11], 94.28%. In addition, in series [10], the Intrinsic clearance was 1112 µL/min/mg. In addition, in the series with BEND3, the Pe was 6.25 10^-3cm/min.
Take `COC(=O)C(Cc1cccc(OC)c1I)NC(=O)CN(C)C(=O)OC(C)(C)C` (configuration not stated): the Ki (in [1]; in series [2]; at Mu-type opioid receptor) was greater than 10 µM each time.
With `COC(=O)C(Cc1cccc(OC)c1I)NC(=O)CNCc1ccccc1` (configuration not stated), the figures for the Ki (in series [1]; in series [2]; at Mu-type opioid receptor) were 0.277 µM, greater than 10 µM and greater than 10 µM, respectively. The Ratio Ki in the series listed under Homo sapiens [3] and in the series filed under Homo sapiens [4] was greater than 36 each time. Also, the half-life at 100 µM in series [5] and in [6] was less than 1 min throughout. Further, the t1/2 in series [7] worked out at 2.1762 h; in series [8], 3.6808 h. For the same molecule, the figures for the PPB in series [9] and in series [11] were 90.8% and 97.09%, respectively. Moreover, in [10], the Intrinsic clearance came to 1928 µL/min/mg. In the series with BEND3, the Pe was 8.75 10^-3cm/min.
Take `Cc1cccc(CC2NC(=O)CN(Cc3ccccc3)C2=O)c1I` (configuration not stated): the Ki (in [1]; in series [2]; at Mu-type opioid receptor) was greater than 10 µM each time.
`COC(=O)C(Cc1cccc(OC)c1I)NC(=O)CCNCc1ccccc1` (configuration not stated): the results for the Ki (in series [1]; in series [2]; at Mu-type opioid receptor) were 1.23 µM, greater than 10 µM and greater than 10 µM, respectively. In addition, the Ratio Ki in the series listed under Homo sapiens [3] and in the series filed under Homo sapiens [4] was greater than 8 each time.
For the molecule `COc1cccc(CC2NC(=O)CN(CCCc3ccccc3)C2=O)c1I` (configuration not stated), the Ki in series [1] was 7 µM; in series [2] it was greater than 10 µM; at Mu-type opioid receptor, greater than 10 µM. The Ratio Ki in the series listed under Homo sapiens [3] and in the series filed under Homo sapiens [4] was greater than 1.4 throughout.
As for `COC(=O)C(Cc1cccc(OC)c1I)NC(=O)[C@@H](N)Cc1ccccc1` (mixture of isomers), the Ki is 2.17 µM in series [1], greater than 10 µM in [2] and greater than 10 µM at Mu-type opioid receptor. Also, the Ratio Ki in the series filed under Homo sapiens [3] and in the series listed under Homo sapiens [4] was greater than 5 each time.
As for `COC(=O)C(Cc1cccc(OC)c1I)NC(=O)CNCc1cccnc1` (configuration not stated), the Ki (in [1]; in [2]; on Mu-type opioid receptor) was greater than 10 µM each time.
`COC(=O)C(Cc1cc(OC)cc(OC)c1I)NC(=O)CNCc1ccccc1` (configuration not stated): the Ki (in [1]; in series [2]; at Mu-type opioid receptor) was greater than 10 µM throughout.
Turning to `O=C1CN(Cc2ccccc2)C(=O)C(Cc2cccc(O)c2I)N1` (configuration not stated), the Ki (in series [1]; in [2]; at Mu-type opioid receptor) was greater than 10 µM each time.
For the molecule `COC(=O)C(Cc1cccc(OC)c1I)NC(=O)CN(Cc1ccccc1)C(C)=O` (configuration not stated), the Ki (in [1]; in [2]; at Mu-type opioid receptor) was greater than 10 µM each time.
`COC(=O)C(Cc1cccc(OC)c1I)NC(=O)CCCc1ccccc1` (configuration not stated): the Ki (in [1]; in series [2]; on Mu-type opioid receptor) was greater than 10 µM in each case.
With `COc1cccc(CC2NC(=O)CN(Cc3cccnc3)C2=O)c1I` (configuration not stated), the Ki (in [1]; in series [2]; on Mu-type opioid receptor) was greater than 10 µM throughout.
For `COc1cccc(CC2NC(=O)[C@H](CC(C)C)NC2=O)c1I` (some centres not stated), the Ki (in [1]; in series [2]; at Mu-type opioid receptor) was greater than 10 µM throughout.
`COc1cccc(CC2NC(=O)CN(C)C2=O)c1I` (configuration not stated): the Ki (in series [1]; in series [2]; on Mu-type opioid receptor) was greater than 10 µM each time.
For `COc1cccc(CC2NC(=O)CN(CC=C(C)C)C2=O)c1I` (configuration not stated), the Ki (in [1]; in series [2]; on Mu-type opioid receptor) was greater than 10 µM throughout.
With `COc1cccc(CC(NC(=O)CNCc2ccccc2)C(=O)OC(C)C)c1I` (configuration not stated), the Ki in series [1] was 1.44 µM; in [2], greater than 10 µM; on Mu-type opioid receptor it was greater than 10 µM. Further, the Ratio Ki in the series listed under Homo sapiens [3] and in the series listed under Homo sapiens [4] was greater than 7 in each case.
